Laboratory results: ChEMBL document CHEMBL5108031, “Novel N-(4-thiocyanatophenyl)-1H-1,2,3-triazole-4-carboxamides exhibit selective cytotoxic activity at nanomolar doses towards human leukemic T-cells” (Eur J Med Chem, 2022)
The source made the active and inactive calls. No cut-off for these calls is given here.

Experiments:
HCT-116 [1] = assay: Antiproliferative activity against p53-deficient human HCT-116 cells incubated for 72 hrs and measured by MTT assay; format: functional
DNA = assay: Binding affinity to DNA (unknown origin) assessed as DNA intercalation at 1 to 100 uM by measuring amount of methyl green dye replaced from DNA-methyl green complex; format: nucleic-acid assay; conditions: Homo sapiens; dose 1-100 µM
NCI-H522 = assay: Antiproliferative activity against human NCI-H522 cells incubated for 48 hrs and measured by SRB assay; format: functional
KB 3-1 = assay: Antiproliferative activity against human KB 3-1 cells incubated for 72 hrs and measured by MTT assay; format: functional
SR = assay: Antiproliferative activity against human SR cells incubated for 48 hrs and measured by SRB assay; format: functional
HCC 2998 = assay: Antiproliferative activity against human HCC 2998 cells assessed as relative cell growth at 10 uM incubated for 48 hrs and measured by SRB assay; format: functional; conditions: read-out: Activity
Jurkat [2] = assay: Induction of DNA damage in human Jurkat cells assessed as DNA fragmentation at 0.5 uM measured by Diphenylamine assay; format: functional
WM793 = assay: Antiproliferative activity against human WM793 cells incubated for 72 hrs and measured by MTT assay; format: functional
Malme-3M = assay: Antiproliferative activity against human Malme-3M cells assessed as relative cell growth at 10 uM incubated for 48 hrs and measured by SRB assay; format: functional; conditions: read-out: Activity
HOP-92 = assay: Antiproliferative activity against human HOP-92 cells incubated for 48 hrs and measured by SRB assay; format: functional
SK-OV-3 = assay: Antiproliferative activity against human SK-OV-3 cells incubated for 72 hrs and measured by MTT assay; format: functional
UO-31 = assay: Antiproliferative activity against human UO-31 cells assessed as relative cell growth at 10 uM incubated for 48 hrs and measured by SRB assay; format: functional; conditions: read-out: Activity
Jurkat [3] = assay: Induction of apoptosis in human Jurkat cells assessed as cellular membrane blebbing at 0.5 uM measured after 24 hrs by Hoechst 33342/propidium iodide staining based fluorescence microscopic analysis; format: functional, cell-based
Jurkat [4] = assay: Induction of apoptosis in human Jurkat cells assessed as fragmented DNA and nuclei at 0.5 uM measured after 24 hrs by Hoechst 33342/propidium iodide staining based fluorescence microscopic analysis; format: functional, cell-based
NCI-H460 = assay: Antiproliferative activity against human NCI-H460 cells incubated for 48 hrs and measured by SRB assay; format: functional, cell-based; conditions: NCI-H460, 48 h
TK-10 = assay: Antiproliferative activity against human TK-10 cells incubated for 48 hrs and measured by SRB assay; format: functional
RXF 393 = assay: Antiproliferative activity against human RXF 393 cells incubated for 48 hrs and measured by SRB assay; format: functional
MOLT-4 = assay: Antiproliferative activity against human MOLT-4 cells assessed as relative cell growth at 10 uM incubated for 48 hrs and measured by SRB assay; format: functional; conditions: read-out: Activity
K562 = assay: Antiproliferative activity against human K562 cells incubated for 72 hrs and measured by MTT assay; format: functional
MDA-MB-231 = assay: Antiproliferative activity against human MDA-MB-231 cells incubated for 72 hrs and measured by MTT assay; format: functional
A549 = assay: Antiproliferative activity against human A549 cells incubated for 72 hrs and measured by MTT assay; format: functional
[5] = biological target: Heat shock protein HSP 90-alpha (Homo sapiens, UniProt P07900); assay: Inhibition of Hsp90alpha (unknown origin)
HCT-116 [6] = assay: Antiproliferative activity against human HCT-116 cells incubated for 72 hrs and measured by MTT assay; format: functional
COLO 205 = assay: Antiproliferative activity against human COLO 205 cells assessed as relative cell growth at 10 uM incubated for 48 hrs and measured by SRB assay; format: functional; conditions: read-out: Activity
HaCaT = assay: Antiproliferative activity against human HaCaT cells incubated for 72 hrs and measured by MTT assay; format: functional
[7] = read-out: LC50 (the source's name)

For Cc1c(C(=O)Nc2ccc(SC#N)cc2)nnn1-c1ccc(C(C)C)cc1, the GI50 (HCT-116 [1]) was 8.4 µM, the Activity (DNA) was 2.4% and the GI50 (NCI-H522) was 1.97 µM. The TGI (NCI-H522) was 5.81 µM, the CC50 (NCI-H522; [7]) was > 100 µM and the GI50 (KB 3-1) was 7.4 µM. For the same compound, the GI50 (SR) was 1.77 µM, the TGI (SR) was 5.51 µM and the CC50 (SR; [7]) was > 100 µM. For the same compound, the growth at 10 µM (HCC 2998) was 82.6%, the Activity (Jurkat [2]) was 26.7% and the GI50 (WM793) was > 100 µM. For the same compound, the growth at 10 µM (Malme-3M) was 95.1%, the GI50 (HOP-92) was 2.85 µM and the TGI (HOP-92) was 10.2 µM. It also gave a CC50 (HOP-92; [7]) of 62 µM, a GI50 (SK-OV-3) of 10 µM and a growth at 10 µM (UO-31) of -17.1%. For the same compound, the Activity (Jurkat [3]) was “Active”, the Activity (Jurkat [4]) was “Active” and the IC50 (NCI-H460) was 0.028 µM. For the same compound, the GI50 (TK-10) was 3.21 µM, the TGI (TK-10) was 9.94 µM and the CC50 (TK-10; [7]) was > 100 µM. The GI50 (RXF 393) was 4.27 µM, the TGI (RXF 393) was 20.4 µM and the CC50 (RXF 393; [7]) was 69.5 µM. For the same compound, the growth at 10 µM (MOLT-4) was -17.6%, the GI50 (K562) was 5.4 µM and the GI50 (MDA-MB-231) was > 100 µM. The GI50 (A549) was > 100 µM, the IC50 [5] was 0.023 µM and the GI50 (HCT-116 [6]) was > 100 µM. For the same compound, the growth at 10 µM (COLO 205) was 89.4% and the GI50 (HaCaT) was > 100 µM.
